Measurements reported in paper PMC9421654, “Discovery of Substituted Di(pyridin-2-yl)-1,2,4-thiadiazol-5-amines as Novel Macrofilaricidal Compounds for the Treatment of Human Filarial Infections” (Journal of Medicinal Chemistry, 2022).
Converted amounts (≈) assume the structure as drawn. Where two headings read alike, the source gives them in different places.

Tests used:
[1] = test system: O. gutturosa adult male worms; test: O. gutturosa adult worm ex vivo assay, motility; assay type: cell-based, Onchocerca gutturosa; settings: Onchocerca gutturosa
Experimental: (§1) Activity against O. gutturosa adult male worms was determined using reported procedures.[7] The EC50 values were calculated using Microsoft Office Excel (2010) data analysis software. The tested compound is considered active when a motility reduction of ≥50% is observed by comparison to the untreated controls. O. gutturosa adult male worms were obtained postmortem from freshly slaughtered cattle. The worms were dissected from the nuchal ligament connective tissues of naturally infected cattle in Gambia, West Africa; the material was purchased from the International Trypanotolerance Centre, Banjul, from local butchers for use in this study. The adult worms were transferred individually to each well of a sterile 24-well (2 mL) plate (Thermo Fisher Scientific, UK) and maintained for at least 24 h in culture before use. The medium used was a minimum essential medium (MEM) with Earl’s salts and L-glutamine (Life Technologies Ltd., UK) supplemented with 10% heat inactivated newborn calf serum (Life Technologies Ltd., UK), 200 units/mL penicillin, 200 μg/mL streptomycin, and 0.5 μg/mL amphotericin B (Life Technologies Ltd., UK). Only normally active worms were used for the test, and all assays were conducted at 37 °C and 5% CO2. The positive control drug used was Immiticide (melarsomine dihydrochloride, Merial, USA). Known amounts of compounds were solubilized in 1 mL of DMSO. All stock solutions were allowed to stand at room temperature prior to use. The test items (four worms/drug concentration) were compared to untreated controls (six worms) and the positive control (two worms/drug concentration). Drug efficacy was assessed by the measurement of mean worm motility scores on a scale of 0 (immotile) to 10 (maximum) every 24 h, terminating at 120 h, using an Olympus inverted microscope. The results are reported as a percentage of the maximum score obtainable (100%) by calculating the motility index scores. The test drug is considered active when a motility reduction of ≥50% is observed by comparison to the untreated controls. […] In addition, biochemical evaluation of worm viability was assessed using MTT/formazan colorimetry. The MTT assay was carried out after the last motility reading (120 h). Single intact worms were placed in each well of a 48-well plate (Thermo Fisher Scientific, UK) containing 0.5 mL of 0.5 mg/mL MTT (Sigma, UK) in PBS solution and then incubated for 30 min at 37 °C. The worms were removed, blotted carefully, and individually transferred to separate wells of a 96-well microtiter plate, each containing 200 μL of DMSO to solubilize the formazan. After 1 h, the plate was gently agitated to disperse the color evenly and the absorbance value (optical density, OD) of the resulting formazan solution was determined at 490 nm using an absorbance microplate reader (Biotek ELx800, Thermo Fisher Scientific, UK). The results are expressed as the mean OD per drug concentration. Inhibition of formazan formation is correlated with worm damage or death.
Data S1. Onchocerca gutturosa adult male worms EC 50 Curves
Plotted using Graph Pad Prism 7.03, least square original fit, sigmoidal, 4PL
The measurement of mean worm motility every 24 h, terminating at 120 h, serial 1 in 4 drug dilutions to find
activity endpoint and produce EC50 values (geomean, n=2) for motility reduction. (4 worms per drug […]

P-gp (MDR1) = molecular target: T1, P-gp (MDR1) (Homo sapiens, UniProt P08183); test: MDCK/MDR1 permeability and efflux; assay type: in vitro ADME; settings: dog
T1 construct: expressed in transfected cells; host or cells: MDCK (Madin Darby canine kidney) cells
Description: Our approach was to target compounds with efflux ratio (ER) >2.5 in the MDCK cell line transfected with MDR1 (multidrug resistance-1 transfected Madin Darby canine kidney cell line). […] Our goal was to impart structural elements designed to impart Pgp recognition.

[2] = test system: O. gutturosa adult male worms; test: O. gutturosa adult worm ex vivo assay, MTT/formazan viability; assay type: cell-based, Onchocerca gutturosa; settings: supplement, SD in brackets in the PDF table, read-out: O. gutturosa EC50 (uM) MTT viability inhibition
Experimental: as §1

[3] = LogD measurement (octanol-water); assay type: physicochemical
Experimental: LogD Measurement: Measurement of octanol-water distribution coefficient of samples using a […]
stock solutions for plating. Aqueous Phase: 100mM Buffer, pH=7.4 (0.1M Potassium phosphate buffer, diluted from Sigma 1M P3619-1GA to 0.1 M with MilliQ water), pH=2.2 (0.1M- NaCl pH adjusted with 0.1N HCL), pH=6.8 (0.1M - KH2PO4/K2HPO4), pH=5 (4 .04g of NaOH (Pellets), 8.65g of Glacial Acetic Acid, 11.874g of NaCl. In in 1 liter water. Adjusted to pH to 5 with either 1N NaOH or 1N HCl); Organic Phase: 1-Octanol (O021). Sample Concentration:
1000uM, […] 10 mM DMSO stock solution diluted in […] of organic Phase and […] of aqueous Phase. DMSO content: 10%. The controls were plated from the standard 10 mM DMSO stock and run on the standard concentration ([…]) range of the assay. Incubation time:
Sonication for 30 minutes followed by 24 hours shaking at 750 rpm in 96 deep well plate (VWR

[4] = Kinetic solubility measurement; assay type: physicochemical; settings: 10 mM DMSO stock solutions
Experimental: Kinetic Solubility Measurement: The standard kinetic solubility assay runs on […] concentration range using 10 mM DMSO stock solutions for plating. Single point calibration assay runs in duplicates. Concentration of standards: […] DMSO solutions prepared by diluting 10 mM stock, solution with DMSO. Concentration of samples: 200 µM, 4 µl 10 mM DMSO stock solution diluted with the appropriate buffer to […]. DMSO content:
2%. Buffers: pH=7.4 (0.1M Potassium phosphate buffer, diluted from Sigma 1M P3619-1GA to 0.1 M with MilliQ water), pH=2.2 (0.1M- NaCl pH adjusted with 0.1N HCL), pH=6.8 (0.1M - KH2PO4/K2HPO4), pH=5 (4 .04g of NaOH (Pellets), 8.65g of Glacial Acetic Acid, 11.874g of NaCl. In in 1 liter water. Adjusted to pH to 5 with either 1N NaOH or 1N HCl). The controls were plated from the standard 10 mM DMSO stock and run on the standard concentration (200µM) range of the assay. Incubation time: 24 hours shaking at […] in Millipore Multiscreen HTS filter plate for Aqueous Solubility Assay (MSSLBPC50), on room temperature.
After incubation time filtration with positive pressure manifold was performed. […]

[5] = molecular target: T2, hERG potassium channels (KCNH2, expressed in HEK293 cells) (Homo sapiens, UniProt Q12809); test: hERG inhibition; assay type: cell-based
T2 construct: expressed in transfected cells

[6] = Liver S9 metabolic stability assay, human; assay type: in vitro ADME; settings: 3 μM, 60 min
Experimental: (§2) Liver S9 Metabolic Stability Assay: Incubations were performed at 37 °C in a Dubnoff Shaking water bath using 2 mL 96-well incubation plates. Rat and human S9 protein concentrations were 0.75 mg/ml and 1.2 mg/ml, respectively. The final concentrations of NADPH, UDPGA, and GSH were 1, 0.5, and 2.5 mM, and the final concentration of PAPS was 0.05 mg/ml. Substrate concentrations were 3µM, incubation time was 60 minutes, and all tests were done in triplicate. The incubation was conducted in 200 mM Tris buffer containing 2 mM magnesium chloride, pH=7.4 and the total incubation volume was 0.5 ml. Samples were analysed via LC-MS/MS and reported as percentage remaining after incubation for 60 minutes. […]

[7] = Liver S9 metabolic stability assay, rat; assay type: in vitro ADME; settings: 3 μM, 60 min
Experimental: as §2

[8] = read-out: O. gutturosa EC50 μM (SD), ex vivo adult worm motility reduction, SD in brackets
[9] = read-out: O. gutturosa EC50 (uM) motility inhibition, supplement, SD in brackets in the PDF table
[10] = supplement, read-out: measured logD

T1 sequence (P08183 whole entry): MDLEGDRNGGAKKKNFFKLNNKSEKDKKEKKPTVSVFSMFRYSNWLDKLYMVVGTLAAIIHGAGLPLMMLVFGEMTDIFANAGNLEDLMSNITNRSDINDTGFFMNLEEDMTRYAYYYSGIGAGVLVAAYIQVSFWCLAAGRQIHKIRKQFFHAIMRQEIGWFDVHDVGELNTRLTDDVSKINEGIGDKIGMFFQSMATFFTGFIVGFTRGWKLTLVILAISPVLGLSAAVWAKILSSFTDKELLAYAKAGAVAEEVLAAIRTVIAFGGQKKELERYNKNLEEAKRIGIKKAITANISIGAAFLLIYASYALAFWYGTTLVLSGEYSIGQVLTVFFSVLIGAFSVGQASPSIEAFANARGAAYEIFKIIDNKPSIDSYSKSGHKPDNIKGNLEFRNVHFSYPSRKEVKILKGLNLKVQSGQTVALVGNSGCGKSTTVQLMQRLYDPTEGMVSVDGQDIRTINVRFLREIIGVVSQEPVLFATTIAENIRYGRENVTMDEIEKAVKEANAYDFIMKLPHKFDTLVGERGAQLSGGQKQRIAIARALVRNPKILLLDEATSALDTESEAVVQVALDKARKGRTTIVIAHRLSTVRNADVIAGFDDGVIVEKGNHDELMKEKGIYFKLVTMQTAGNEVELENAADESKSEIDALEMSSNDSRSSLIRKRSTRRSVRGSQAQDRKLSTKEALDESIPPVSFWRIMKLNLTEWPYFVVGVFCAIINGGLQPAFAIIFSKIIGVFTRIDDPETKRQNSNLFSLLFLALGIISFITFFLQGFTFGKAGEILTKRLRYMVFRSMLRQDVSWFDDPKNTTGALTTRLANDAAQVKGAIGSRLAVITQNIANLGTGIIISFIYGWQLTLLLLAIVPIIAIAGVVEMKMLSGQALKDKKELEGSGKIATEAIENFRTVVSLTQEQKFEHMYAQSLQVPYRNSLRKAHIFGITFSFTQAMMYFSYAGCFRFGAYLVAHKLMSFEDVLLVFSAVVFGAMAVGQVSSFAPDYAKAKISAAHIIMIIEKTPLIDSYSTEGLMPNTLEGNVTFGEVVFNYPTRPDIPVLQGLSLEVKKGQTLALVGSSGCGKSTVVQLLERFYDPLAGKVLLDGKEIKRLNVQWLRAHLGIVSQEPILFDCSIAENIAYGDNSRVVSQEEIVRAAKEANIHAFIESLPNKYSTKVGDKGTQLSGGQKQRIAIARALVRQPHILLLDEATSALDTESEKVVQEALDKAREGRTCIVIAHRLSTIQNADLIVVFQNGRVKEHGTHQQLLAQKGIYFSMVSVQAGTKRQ
T2 sequence (Q12809 whole entry): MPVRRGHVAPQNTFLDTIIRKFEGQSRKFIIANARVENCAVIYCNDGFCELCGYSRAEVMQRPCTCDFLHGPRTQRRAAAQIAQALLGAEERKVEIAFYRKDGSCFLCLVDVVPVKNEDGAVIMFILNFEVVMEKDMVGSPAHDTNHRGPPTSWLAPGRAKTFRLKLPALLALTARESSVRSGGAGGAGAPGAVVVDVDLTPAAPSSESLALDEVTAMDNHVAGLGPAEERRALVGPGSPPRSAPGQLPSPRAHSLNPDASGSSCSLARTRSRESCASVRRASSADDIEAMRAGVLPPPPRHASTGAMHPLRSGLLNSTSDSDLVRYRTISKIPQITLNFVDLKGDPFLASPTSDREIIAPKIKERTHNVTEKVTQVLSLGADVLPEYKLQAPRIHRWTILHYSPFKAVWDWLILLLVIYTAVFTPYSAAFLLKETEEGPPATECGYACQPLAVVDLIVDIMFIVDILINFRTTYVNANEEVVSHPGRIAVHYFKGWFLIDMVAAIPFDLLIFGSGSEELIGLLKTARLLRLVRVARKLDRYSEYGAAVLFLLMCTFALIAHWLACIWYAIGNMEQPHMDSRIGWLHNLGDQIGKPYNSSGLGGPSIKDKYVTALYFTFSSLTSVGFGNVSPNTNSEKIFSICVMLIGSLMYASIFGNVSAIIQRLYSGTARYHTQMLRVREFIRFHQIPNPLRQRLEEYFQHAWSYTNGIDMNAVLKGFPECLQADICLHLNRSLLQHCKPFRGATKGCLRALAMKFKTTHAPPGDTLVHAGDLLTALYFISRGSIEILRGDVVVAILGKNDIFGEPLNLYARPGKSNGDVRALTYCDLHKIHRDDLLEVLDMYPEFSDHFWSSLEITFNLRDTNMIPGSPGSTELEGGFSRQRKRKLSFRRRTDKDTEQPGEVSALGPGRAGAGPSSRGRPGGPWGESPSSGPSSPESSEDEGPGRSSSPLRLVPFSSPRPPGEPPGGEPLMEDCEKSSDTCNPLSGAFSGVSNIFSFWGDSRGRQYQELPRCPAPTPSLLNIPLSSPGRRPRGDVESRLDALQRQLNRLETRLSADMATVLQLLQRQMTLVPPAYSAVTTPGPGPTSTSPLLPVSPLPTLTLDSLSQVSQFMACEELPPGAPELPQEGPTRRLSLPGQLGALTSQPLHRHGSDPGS

| SMILES | EC50 [1, 8] | EC50 [1, 9] | Papp A→B (P-gp (MDR1)) | EC50 ([2]; Onchocerca gutturosa) | logD at 24 h ([3]; pH 7.4, read-out: logD) | logD at 24 h [3, 10] | solubility kinetic at 24 h [4] | IC50 ([5]; supplement) | Human S9 metabolic stability [6] | Rat S9 metabolic stability [7] | EC50 [2] | EC50 ([1]; read-out: O. gutturosa EC50, adult worm motility, bound stated) | IC50 [5] |
| --- | --- | --- | --- | --- | --- | --- | --- | --- | --- | --- | --- | --- | --- |
| CC(=O)N(C)c1cc(C(F)(F)F)cnc1Nc1nc(-c2cc(OC(C)C)ccn2)ns1 [Compound 55, N-(2-((3-(4-Isopropoxypyridin-2-yl)-1,2,4-thiadiazol-5-yl)amino)-5-(trifluoromethyl)pyridin-3-yl)-N-methylacetamide] | 0.01 µM | 0.013 µM | 17 nm/s | 0.04 µM | 3 | 3 |  |  |  |  |  |  |  |
| Cc1cccnc1Nc1nc(-c2cc(C#N)c(OC(C)C)cn2)ns1 [Compound 15] | 1.37 µM |  |  | 0.71 µM | 2.3 | 2.3 | 0.3 µM (≈ 0.106 µg/mL) | > 30 µM | 100 % remaining | 84 % remaining |  |  |  |
| CC(C)Oc1cccnc1-c1nsc(Nc2ncc(C(F)(F)F)cc2C(=O)N(C)C)n1 [Compound 58, 2-[[3-(3-Isopropoxy-2-pyridyl)-1,2,4-thiadiazol-5-yl]amino]-N,N-dimethyl-5-(trifluoromethyl)pyridine-3-carboxamide] | 0.62 µM | 0.621 µM | 112 nm/s | 1.5 µM | 2.15 | 2.15 | 130 µM (≈ 58.9 µg/mL) |  |  |  |  |  |  |
| Cc1cccnc1Nc1nc(-c2ccc(C(=O)N(C)C)cn2)ns1 [Compound 18, N,N-Dimethyl-6-(5-((3-methylpyridin-2-yl)amino)-1,2,4-thiadiazol-3-yl)nicotinamide] | 0.06 µM | 0.062 µM |  | 0.09 µM | 1.7 | 1.7 | 73.2 µM (≈ 24.9 µg/mL) | > 30 µM | 97 % remaining | 94 % remaining | 0.087 µM |  |  |
| Cc1cccnc1Nc1nc(-c2ccc(OC3CCOCC3)cn2)ns1 [Compound 3] | 0.03 µM | 0.027 µM |  | 0.24 µM |  | 2.2 | 7.3 µM (≈ 2.7 µg/mL) | 19 µM | 84 % remaining | 82 % remaining |  | < 0.1 µM |  |
| CC(C)Oc1cnc(-c2nsc(Nc3ncccc3N3CCCC3=O)n2)cc1C(F)(F)F [Compound 52, 1-(2-((3-(5-Isopropoxy-4-(trifluoromethyl)pyridin-2-yl)-1,2,4-thiadiazol-5-yl)amino)pyridin-3-yl)pyrrolidin-2-one] | 1.73 µM |  | 129 nm/s | 1.95 µM | 2.7 | 2.7 | 9.95 µM (≈ 4.62 µg/mL) |  |  |  |  |  |  |
| CC(=O)N(C)c1cnc(Nc2nc(-c3ccc(OC(C)C)cn3)ns2)c(C)c1 [Compound 51] | 0.49 µM | 0.488 µM | 303 nm/s | 0.46 µM | 2.2 | 2.2 | 15 µM (≈ 5.98 µg/mL) |  |  |  |  |  |  |
| Cc1cccnc1Nc1nc(-c2ccc(OC3CCN(C4CC4)CC3(F)F)cn2)ns1 (stereo not shown) [Compound 20, 3-(5-((1-Cyclopropyl-3,3-difluoropiperidin-4-yl)oxy)pyridin-2-yl)-N-(3-methylpyridin-2-yl)-1,2,4-thiadiazol-5-amine] | 0.24 µM | 0.236 µM |  | 0.3 µM | 2.8 | 2.8 |  |  | 52 % remaining | 32 % remaining |  |  | > 30 µM |
